From patent US8124793B2, “Derivatives of ethylene methanedisulfonate as cancer chemotherapeutic agents” (priority 2007, dated 2012)

How the values were obtained:
[1] = system: 786-0; test: NCI screen, growth of human tumor cells: Renal Cancer 786-0; format: cell-based; conditions: 786-0 (Renal Cancer), 10^−4 molar
How it was run: (§1)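 At least 60 data points describe each compound tested by NCI. Cancer type, molar concentration in the screen and percent growth make up the recorded data.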

[2] = system: ACHN; test: NCI screen, growth of human tumor cells: Renal Cancer ACHN; format: cell-based; conditions: ACHN (Renal Cancer), 10^−4 molar
How it was run: as §1

[3] = system: K562; test: NCI screen, growth of human tumor cells: Leukemia K562; format: cell-based; conditions: K562 (Leukemia), 10^−4 molar
How it was run: as §1

[4] = system: SNB-19; test: NCI screen, growth of human tumor cells: CNS Cancer SNB-19; format: cell-based; conditions: SNB-19 (CNS Cancer), 10^−4 molar
How it was run: as §1

[5] = system: lymphocytic leukemia, lymphoid leukemia, melanocarcinoma, human breast xenograft and ovarian carcinoma; conditions: disclosure of U.S. Pat. No. 4,950,768; cited from earlier work
[6] = system: UACC-62; test: NCI screen, growth of human tumor cells: Melanoma UACC-62; format: cell-based; conditions: UACC-62 (Melanoma), 10^−4 molar
How it was run: as §1

[7] = system: CCRF-CEM; test: NCI screen, growth of human tumor cells: Leukemia CCRF-CEM; format: cell-based; conditions: CCRF-CEM (Leukemia), 10^−4 molar
How it was run: as §1

[8] = system: SNB-75; test: NCI screen, growth of human tumor cells: CNS Cancer SNB-75; format: cell-based; conditions: SNB-75 (CNS Cancer), 10^−4 molar
How it was run: as §1

[9] = system: CAKI-1; test: NCI screen, growth of human tumor cells: Renal Cancer CAKI-1; format: cell-based; conditions: CAKI-1 (Renal Cancer), 10^−4 molar
How it was run: as §1

[10] = system: NCI-H460; test: NCI screen, growth of human tumor cells: Non-Small Cell Lung NCI-H460; format: cell-based; conditions: NCI-H460 (Non-Small Cell Lung), 10^−4 molar
How it was run: as §1

[11] = system: HOP-92; test: NCI screen, growth of human tumor cells: Non-Small Cell Lung HOP-92; format: cell-based; conditions: HOP-92 (Non-Small Cell Lung), 10^−4 molar
How it was run: as §1

[12] = system: MOLT-4; test: NCI screen, growth of human tumor cells: Leukemia MOLT-4; format: cell-based; conditions: MOLT-4 (Leukemia), 10^−4 molar
How it was run: as §1

[13] = system: HCC-2998; test: NCI screen, growth of human tumor cells: HCC-2998 (listed under Non-Small Cell Lung); format: cell-based; conditions: HCC-2998 (under Non-Small Cell Lung), 10^−4 molar
How it was run: as §1

[14] = system: DU-145; test: NCI screen, growth of human tumor cells: Prostate Cancer DU-145; format: cell-based; conditions: DU-145 (Prostate Cancer), 10^−4 molar
How it was run: as §1

[15] = system: SF-268; test: NCI screen, growth of human tumor cells: CNS Cancer SF-268; format: cell-based; conditions: SF-268 (CNS Cancer), 10^−4 molar
How it was run: as §1

[16] = system: HCT-15; test: NCI screen, growth of human tumor cells: Colon Cancer HCT-15; format: cell-based; conditions: HCT-15 (Colon Cancer), 10^−4 molar
How it was run: as §1

[17] = system: MCF7/ADR-RES; test: NCI screen, growth of human tumor cells: Breast Cancer MCF7/ADR-RES; format: cell-based; conditions: MCF7/ADR-RES (Breast Cancer), 10^−4 molar
How it was run: as §1

[18] = system: LOXIMVI; test: NCI screen, growth of human tumor cells: Melanoma LOXIMVI; format: cell-based; conditions: LOXIMVI (Melanoma), 10^−4 molar
How it was run: as §1

[19] = system: SF-295; test: NCI screen, growth of human tumor cells: CNS Cancer SF-295; format: cell-based; conditions: SF-295 (CNS Cancer), 10^−4 molar
How it was run: as §1

[20] = system: HT29; test: NCI screen, growth of human tumor cells: Colon Cancer HT29; format: cell-based; conditions: HT-29, 10^−4 molar
How it was run: as §1

[21] = system: MALME-3M; test: NCI screen, growth of human tumor cells: Melanoma MALME-3M; format: cell-based; conditions: MALME-3M (Melanoma), 10^−4 molar
How it was run: as §1

[22] = system: HCT-116; test: NCI screen, growth of human tumor cells: Colon Cancer HCT-116; format: cell-based; conditions: HCT-116 (Colon Cancer), 10^−4 molar
How it was run: as §1

[23] = system: EKVX; test: NCI screen, growth of human tumor cells: Non-Small Cell Lung EKVX; format: cell-based; conditions: EKVX (Non-Small Cell Lung), 10^−4 molar
How it was run: as §1

[24] = system: OVCAR-8; test: NCI screen, growth of human tumor cells: Ovarian Cancer OVCAR-8; format: cell-based; conditions: OVCAR-8 (Ovarian Cancer), 10^−4 molar
How it was run: as §1

[25] = system: M14; test: NCI screen, growth of human tumor cells: Melanoma M14; format: cell-based; conditions: M14 (Melanoma), 10^−4 molar
How it was run: as §1

[26] = system: NCI-H522; test: NCI screen, growth of human tumor cells: Non-Small Cell Lung NCI-H522; format: cell-based; conditions: NCI-H522 (Non-Small Cell Lung), 10^−4 molar
How it was run: as §1

[27] = system: human cancer cells; test: NCI screen summary over the cancers tested (negative growth of human cancer cells); format: cell-based; conditions: 10^−4 M conc.; cancers with negative growth / cancers tested
Procedure: (§2) In the NCI screening process, each compound was tested and described by a minimum of 60 data points. The test data include, but are not limited to the type of cancer, the molar concentration used in the screen, and the percent growth of the cancer. In some cases, NMR and elemental analysis were used for structural assignment.
The derivatives in the tables are grouped using the same category as in the tables 1-6.

[28] = system: SK-MEL-2; test: NCI screen, growth of human tumor cells: Melanoma SK-MEL-2; format: cell-based; conditions: SK-MEL-2 (Melanoma), 10^−4 molar
How it was run: as §1

[29] = system: MDA-MB-231/ATCC; test: NCI screen, growth of human tumor cells: Breast Cancer MDA-MB-231/ATCC; format: cell-based; conditions: MDA-MB-231/ATCC (Breast Cancer), 10^−4 molar
How it was run: as §1

[30] = system: MCF 7; test: NCI screen, growth of human tumor cells: Breast Cancer MCF 7; format: cell-based; conditions: MCF 7 (Breast Cancer), 10^−4 molar
How it was run: as §1

[31] = system: MDA-MB-435; test: NCI screen, growth of human tumor cells: Breast Cancer MDA-MB-435; format: cell-based; conditions: MDA-MB-435 (Breast Cancer), 10^−4 molar
How it was run: as §1

[32] = Water solubility noted at isolation; format: physicochemical; conditions: observation on the isolated product
Procedure: To a solution of 0.8 g of ethylene bromomethanedisulfonate (91-5) in 50 mL of glyme with 0.2 g of NaH was added followed by 0.6 g of the anhydride of 1,2-ethanedisulfonic acid. After 24 hrs, the solvent was removed and the residue taken up in 10 mL of acetone to give 0.5 g of water soluble 96-13.
To a solution of 0.58 g of ethylene methanedisulfonate in 50 mL of glyme and 0.2 g of NaH was added 0.65 g of 8-quinolinesulfonyl chloride. After 3 hrs., the solution was filtered, and the solid was washed with CH2Cl2 and dried overnight to give 1.155 g of a mixture of NaCl, Na2CO3, and product. A sample was H2O soluble and the calculated yield, based on assumption of the NaCl and Na2CO3, was 0.848 g (71%) of 97-4.

[33] = system: UACC-257; test: NCI screen, growth of human tumor cells: Melanoma UACC-257; format: cell-based; conditions: UACC-257 (Melanoma), 10^−4 molar
How it was run: as §1

[34] = system: OVCAR-3; test: NCI screen, growth of human tumor cells: Ovarian Cancer OVCAR-3; format: cell-based; conditions: OVCAR-3 (Ovarian Cancer), 10^−4 molar
How it was run: as §1

[35] = system: KM12; test: NCI screen, growth of human tumor cells: Colon Cancer KM12; format: cell-based; conditions: KM12 (Colon Cancer), 10^−4 molar
How it was run: as §1

[36] = system: U-251; test: NCI screen, growth of human tumor cells: CNS Cancer U-251; format: cell-based; conditions: U-251 (CNS Cancer), 10^−4 molar
How it was run: as §1

[37] = system: NCI-H23; test: NCI screen, growth of human tumor cells: Non-Small Cell Lung NCI-H23; format: cell-based; conditions: NCI-H23 (Non-Small Cell Lung), 10^−4 molar
How it was run: as §1

[38] = system: SN12C; test: NCI screen, growth of human tumor cells: Renal Cancer SN12C; format: cell-based; conditions: SN12C (Renal Cancer), 10^−4 molar
How it was run: as §1

[39] = system: OVCAR-4; test: NCI screen, growth of human tumor cells: Ovarian Cancer OVCAR-4; format: cell-based; conditions: OVCAR-4 (Ovarian Cancer), 10^−4 molar
How it was run: as §1

[40] = system: MDA-N; test: NCI screen, growth of human tumor cells: Breast Cancer MDA-N; format: cell-based; conditions: 10^−4 molar
Procedure: as §2

[41] = system: IGROVI; test: NCI screen, growth of human tumor cells: Ovarian Cancer IGROVI; format: cell-based; conditions: IGROVI (Ovarian Cancer), 10^−4 molar
How it was run: as §1

[42] = system: SK-MEL-5; test: NCI screen, growth of human tumor cells: Melanoma SK-MEL-5; format: cell-based; conditions: SK-MEL-5 (Melanoma), 10^−4 molar
How it was run: as §1

[43] = system: SF-539; test: NCI screen, growth of human tumor cells: CNS Cancer SF-539; format: cell-based; conditions: SF-539 (CNS Cancer), 10^−4 molar
How it was run: as §1

In the case of O=S1(=O)CS(=O)(=O)OCCO1 [NSC 348948, ethylene methanedisulfonate], the melting point is reported as 176 to 180 °C, the “percent of growth of human tumor cells” value [1] is reported as 24% and the “percent of growth of human tumor cells” value [2] is reported as 22%. For the same compound, the “percent of growth of human tumor cells” value [3] was 5%, the “percent of growth of human tumor cells” value [4] was 18% and the “effectiveness in the treatment of mice cancers” value [5] was “effective”. The “percent of growth of human tumor cells” value [6] was −13%, the “percent of growth of human tumor cells” value [7] was −3% and the “percent of growth of human tumor cells” value [8] was 18%. The “percent of growth of human tumor cells” value [9] was −6%, the “percent of growth of human tumor cells” value [10] was 6% and the “percent of growth of human tumor cells” value [11] was 6%. The “percent of growth of human tumor cells” value [12] was 5%.
In the case of O=S1(=O)OCCOS(=O)(=O)C1c1cccc2cccnc12 [NSC 698122, ethylene 8-quinolylmethanedisulfonate], the “percent of growth of human tumor cells” value [13] is reported as −12%, the “percent of growth of human tumor cells” value [14] is reported as 2% and the “percent of growth of human tumor cells” value [15] is reported as 24%. For the same compound, the “percent of growth of human tumor cells” value [16] was 18%, the “percent of growth of human tumor cells” value [17] was −5% and the “percent of growth of human tumor cells” value [18] was −43%. For the same compound, the “percent of growth of human tumor cells” value [19] was 18%, the “% Growth” value [20] was −64% and the “percent of growth of human tumor cells” value [21] was 29%. The “percent of growth of human tumor cells” value [22] was 16%, the “percent of growth of human tumor cells” value [23] was 28% and the “percent of growth of human tumor cells” value [24] was 19%. The “percent of growth of human tumor cells” value [25] was 10%, the “percent of growth of human tumor cells” value [26] was −40% and the “Percentage of cancers showing negative growth cancers tested” value [27] was 10^−4 M conc. = 8/31 = 25.8%. The “percent of growth of human tumor cells” value [28] was 24%, the “percent of growth of human tumor cells” value [29] was 26% and the “percent of growth of human tumor cells” value [30] was 12%. The “percent of growth of human tumor cells” value [31] was 19%, the water solubility [32] was “H2O soluble” and the “percent of growth of human tumor cells” value [33] was 13%. For the same compound, the “percent of growth of human tumor cells” value [34] was 25%, the “percent of growth of human tumor cells” value [35] was 7% and the “percent of growth of human tumor cells” value [6] was −46%. For the same compound, the “percent of growth of human tumor cells” value [36] was −53%, the “percent of growth of human tumor cells” value [37] was 27% and the “percent of growth of human tumor cells” value [38] was 28%. For the same compound, the “percent of growth of human tumor cells” value [39] was 30%, the “percent of growth of human tumor cells” value [10] was −40% and the “percent of growth of human tumor cells” value [40] was 10%. The “percent of growth of human tumor cells” value [41] was 17%, the “percent of growth of human tumor cells” value [42] was 15% and the “percent of growth of human tumor cells” value [43] was 30%.
